Test results as given in patent publication US8192962B2, “Processes for detecting toxic substances” (Daikin Industries, Ltd., priority 2001, dated 2012).

System: Detoxification protein genes
Assay: DNA chip mRNA expression in yeast, detoxification protein genes (Table 8)
Assay type: cell-based, Saccharomyces cerevisiae S288C
Outline: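 Whole-genome yeast DNA chip hybridization (65° C., >12 h) of Cy-labeled cDNA from S288C cells exposed 2 h at 25° C. to a sub-lethal toxicant dose in YPD; value is intensity relative to chemical-free control.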

Structure (SMILES): CCCCCCCCCCCCOS(=O)(=O)[O-].[Na+] [(18), sodium lauryl sulfate]
- The level of expressed mRNA in the presence of chemical substance/The level of expressed mRNA in the absence of chemical substance (yeast gene YBL064C): 2.3
- The level of expressed mRNA in the presence of chemical substance/The level of expressed mRNA in the absence of chemical substance (yeast gene YBR008C): 1.2
- The level of expressed mRNA in the presence of chemical substance/The level of expressed mRNA in the absence of chemical substance (yeast gene YBR145W): 2.0
- The level of expressed mRNA in the presence of chemical substance/The level of expressed mRNA in the absence of chemical substance (yeast gene YBR244W): 1.2
- The level of expressed mRNA in the presence of chemical substance/The level of expressed mRNA in the absence of chemical substance (yeast gene YBR293W): 0.9
- The level of expressed mRNA in the presence of chemical substance/The level of expressed mRNA in the absence of chemical substance (yeast gene YCL035C): 4.2
- The level of expressed mRNA in the presence of chemical substance/The level of expressed mRNA in the absence of chemical substance (yeast gene YCL069W): 1.0
- The level of expressed mRNA in the presence of chemical substance/The level of expressed mRNA in the absence of chemical substance (yeast gene YCR083W): 1.3
- The level of expressed mRNA in the presence of chemical substance/The level of expressed mRNA in the absence of chemical substance (yeast gene YDL100C): 1.4
- The level of expressed mRNA in the presence of chemical substance/The level of expressed mRNA in the absence of chemical substance (yeast gene YDL168W): 0.8
- The level of expressed mRNA in the presence of chemical substance/The level of expressed mRNA in the absence of chemical substance (yeast gene YDR256C): 2.0
- The level of expressed mRNA in the presence of chemical substance/The level of expressed mRNA in the absence of chemical substance (yeast gene YDR453C): 1.5
- The level of expressed mRNA in the presence of chemical substance/The level of expressed mRNA in the absence of chemical substance (yeast gene YDR513W): 3.2
- The level of expressed mRNA in the presence of chemical substance/The level of expressed mRNA in the absence of chemical substance (yeast gene YDR538W): 0.9
- The level of expressed mRNA in the presence of chemical substance/The level of expressed mRNA in the absence of chemical substance (yeast gene YEL027W): 1.4
- The level of expressed mRNA in the presence of chemical substance/The level of expressed mRNA in the absence of chemical substance (yeast gene YEL065W): 0.6
- The level of expressed mRNA in the presence of chemical substance/The level of expressed mRNA in the absence of chemical substance (yeast gene YER185W): 1.1
- The level of expressed mRNA in the presence of chemical substance/The level of expressed mRNA in the absence of chemical substance (yeast gene YFL050C): 1.0
- The level of expressed mRNA in the presence of chemical substance/The level of expressed mRNA in the absence of chemical substance (yeast gene YGL013C): 1.0
- The level of expressed mRNA in the presence of chemical substance/The level of expressed mRNA in the absence of chemical substance (yeast gene YGL254W): 1.2
- The level of expressed mRNA in the presence of chemical substance/The level of expressed mRNA in the absence of chemical substance (yeast gene YGR088W): 2.0
- The level of expressed mRNA in the presence of chemical substance/The level of expressed mRNA in the absence of chemical substance (yeast gene YGR138C): 0.7
- The level of expressed mRNA in the presence of chemical substance/The level of expressed mRNA in the absence of chemical substance (yeast gene YGR197C): 1.9
- The level of expressed mRNA in the presence of chemical substance/The level of expressed mRNA in the absence of chemical substance (yeast gene YGR209C): 2.4
- The level of expressed mRNA in the presence of chemical substance/The level of expressed mRNA in the absence of chemical substance (yeast gene YGR224W): 1.3
- The level of expressed mRNA in the presence of chemical substance/The level of expressed mRNA in the absence of chemical substance (yeast gene YHL040C): 1.0
- The level of expressed mRNA in the presence of chemical substance/The level of expressed mRNA in the absence of chemical substance (yeast gene YHL047C): 1.2
- The level of expressed mRNA in the presence of chemical substance/The level of expressed mRNA in the absence of chemical substance (yeast gene YHR008C): 1.0
- The level of expressed mRNA in the presence of chemical substance/The level of expressed mRNA in the absence of chemical substance (yeast gene YHR048W): 0.9
- The level of expressed mRNA in the presence of chemical substance/The level of expressed mRNA in the absence of chemical substance (yeast gene YHR053C): 0.5
- The level of expressed mRNA in the presence of chemical substance/The level of expressed mRNA in the absence of chemical substance (yeast gene YHR055C): 0.6
- The level of expressed mRNA in the presence of chemical substance/The level of expressed mRNA in the absence of chemical substance (yeast gene YIR002C): 1.2
- The level of expressed mRNA in the presence of chemical substance/The level of expressed mRNA in the absence of chemical substance (yeast gene YIR038C): 2.0
- The level of expressed mRNA in the presence of chemical substance/The level of expressed mRNA in the absence of chemical substance (yeast gene YJL101C): 1.0
- The level of expressed mRNA in the presence of chemical substance/The level of expressed mRNA in the absence of chemical substance (yeast gene YJR104C): 1.1
- The level of expressed mRNA in the presence of chemical substance/The level of expressed mRNA in the absence of chemical substance (yeast gene YKL026C): 3.3
- The level of expressed mRNA in the presence of chemical substance/The level of expressed mRNA in the absence of chemical substance (yeast gene YKL064W): 1.3
- The level of expressed mRNA in the presence of chemical substance/The level of expressed mRNA in the absence of chemical substance (yeast gene YKR066C): 1.1
- The level of expressed mRNA in the presence of chemical substance/The level of expressed mRNA in the absence of chemical substance (yeast gene YKR105C): 1.0
- The level of expressed mRNA in the presence of chemical substance/The level of expressed mRNA in the absence of chemical substance (yeast gene YKR106W): 0.8
- The level of expressed mRNA in the presence of chemical substance/The level of expressed mRNA in the absence of chemical substance (yeast gene YLL028W): 1.2
- The level of expressed mRNA in the presence of chemical substance/The level of expressed mRNA in the absence of chemical substance (yeast gene YLL057C): 1.3
- The level of expressed mRNA in the presence of chemical substance/The level of expressed mRNA in the absence of chemical substance (yeast gene YLL060C): 2.3
- The level of expressed mRNA in the presence of chemical substance/The level of expressed mRNA in the absence of chemical substance (yeast gene YLR043C): 2.2
- The level of expressed mRNA in the presence of chemical substance/The level of expressed mRNA in the absence of chemical substance (yeast gene YLR046C): 5.4
- The level of expressed mRNA in the presence of chemical substance/The level of expressed mRNA in the absence of chemical substance (yeast gene YML028W): 1.5
- The level of expressed mRNA in the presence of chemical substance/The level of expressed mRNA in the absence of chemical substance (yeast gene YML116W): 1.0
- The level of expressed mRNA in the presence of chemical substance/The level of expressed mRNA in the absence of chemical substance (yeast gene YMR015C): 1.0
- The level of expressed mRNA in the presence of chemical substance/The level of expressed mRNA in the absence of chemical substance (yeast gene YMR038C): 1.3
- The level of expressed mRNA in the presence of chemical substance/The level of expressed mRNA in the absence of chemical substance (yeast gene YNL239W): 1.4
- The level of expressed mRNA in the presence of chemical substance/The level of expressed mRNA in the absence of chemical substance (yeast gene YNL241C): 1.0
- The level of expressed mRNA in the presence of chemical substance/The level of expressed mRNA in the absence of chemical substance (yeast gene YNL259C): 2.4
- The level of expressed mRNA in the presence of chemical substance/The level of expressed mRNA in the absence of chemical substance (yeast gene YOL158C): 1.7
- The level of expressed mRNA in the presence of chemical substance/The level of expressed mRNA in the absence of chemical substance (yeast gene YOR031W): 2.4
- The level of expressed mRNA in the presence of chemical substance/The level of expressed mRNA in the absence of chemical substance (yeast gene YOR153W): 3.1
- The level of expressed mRNA in the presence of chemical substance/The level of expressed mRNA in the absence of chemical substance (yeast gene YOR247W): 0.9
- The level of expressed mRNA in the presence of chemical substance/The level of expressed mRNA in the absence of chemical substance (yeast gene YOR251C): 1.3
- The level of expressed mRNA in the presence of chemical substance/The level of expressed mRNA in the absence of chemical substance (yeast gene YOR273C): 3.1
- The level of expressed mRNA in the presence of chemical substance/The level of expressed mRNA in the absence of chemical substance (yeast gene YPL163C): 1.4
- The level of expressed mRNA in the presence of chemical substance/The level of expressed mRNA in the absence of chemical substance (yeast gene YPR200C): 1.0
